pEC50: −log10 of the molar value. Activity calls are given as the source filed them. The rule behind the calls is not given here.
Assays:
[1] = Cytotoxicity against african green monkey Vero cells after 3 days by neutral red dye method; type: cell-based; details: chlorocebus sabaeus
[2] = tested on: Human alphaherpesvirus 1; assay: Antiviral activity against Herpes simplex virus type 1 infected in Vero cells at 0.01 ID50/cells assessed as protection against virus-induced cytopathic effect after 3 days by neutral red dye method; type: functional, organism-based; details: Human alphaherpesvirus 1, Vero, 72 h
[3] = tested on: Human alphaherpesvirus 1; assay: Antiviral activity against Herpes simplex virus type 1 infected in Vero cells at 0.001 ID50/cells assessed as destruction of cell layer after 3 days by neutral red dye method; type: functional, organism-based
[4] = tested on: Human alphaherpesvirus 1; assay: Antiviral activity against Herpes simplex virus type 1 infected in Vero cells at 0.001 ID50/cells assessed as protection against virus-induced cytopathic effect after 3 days by neutral red dye method; type: functional, organism-based; details: Human alphaherpesvirus 1, Vero, 72 h
[5] = tested on: Human alphaherpesvirus 1; assay: Antiviral activity against Herpes simplex virus type 1 infected in Vero cells at 0.001 ID50/cells assessed as change in cell morphology after 3 days by neutral red dye method; type: functional, organism-based
[6] = tested on: Human alphaherpesvirus 1; assay: Ratio of acyclovir EC50 to compound EC50 for Herpes simplex virus type 1; type: functional
[7] = tested on: Human alphaherpesvirus 1; assay: Antiviral activity against Herpes simplex virus type 1 infected in Vero cells at 0.001 ID50/cells assessed as protection against virus-induced cytopathic effect at 200 ug/ml after 3 days by neutral red dye method relative to control; type: functional

SMILES	CC50 at 72 h [1] [µM]	pEC50 [2]	Activity [3]	pEC50 [4]	Activity [5]	ratio [6]	Activity [7] [%]
CCOc1ccc(-c2c(O)c(-c3ccccc3)cn([C@@H]3O[C@H](COC(C)=O)[C@@H](OC(C)=O)[C@H]3OC(C)=O)c2=O)cc1	> 200	< 4.00	–	–	–	–	–
COc1c(C)cc(-c2c(O)ccn([C@@H]3O[C@H](COC(C)=O)[C@@H](OC(C)=O)[C@H]3OC(C)=O)c2=O)cc1C	> 200	< 4.00	–	–	–	–	–
CCOc1ccc(-c2c(O)c(-c3ccccc3)cn([C@@H]3O[C@H](CO)[C@@H](O)[C@H]3O)c2=O)cc1	> 200	< 4.00	–	–	–	–	–
CC(=O)OC[C@H]1O[C@@H](n2ccc(O)c(-c3ccccc3)c2=O)[C@H](OC(C)=O)[C@@H]1OC(C)=O	> 400	–	Active	< 4.00	Active	–	–
COc1c(C)cc(-c2c(O)ccn([C@@H]3O[C@H](CO)[C@@H](O)[C@H]3O)c2=O)cc1C	> 200	< 4.00	–	–	–	–	–
COc1ccc(-c2cn([C@@H]3O[C@H](COC(C)=O)[C@@H](OC(C)=O)[C@H]3OC(C)=O)c(=O)cc2O)cc1	> 200	< 4.00	–	–	–	–	–
CC(C)(C)c1ccc(-c2c(O)ccn([C@@H]3O[C@H](CO)[C@@H](O)[C@H]3O)c2=O)cc1	> 200	< 4.00	–	–	–	–	–
O=c1cc(O)c2ccccc2n1[C@@H]1O[C@H](CO)[C@@H](O)[C@H]1O	> 200	< 4.00	–	–	–	–	–
CC(=O)OC[C@H]1O[C@@H](n2ccc(O)c(CCc3ccccc3)c2=O)[C@H](OC(C)=O)[C@@H]1OC(C)=O	> 400	–	Active	< 4.00	Active	–	–
COc1ccc(-c2c(O)ccn([C@@H]3O[C@H](COC(C)=O)[C@@H](OC(C)=O)[C@H]3OC(C)=O)c2=O)cc1OC	> 200	< 4.00	Active	4.44	Active	2.1	75
CC(=O)OC[C@H]1O[C@@H](n2ccc(O)c(-c3ccc(S(C)(=O)=O)cc3)c2=O)[C@H](OC(C)=O)[C@@H]1OC(C)=O	> 200	< 4.00	–	–	–	–	–
CC(=O)OC[C@H]1O[C@@H](n2ccc(O)c(-c3ccc(C4CCCCC4)cc3)c2=O)[C@H](OC(C)=O)[C@@H]1OC(C)=O	> 200	4.31	–	–	–	45	–
COc1cc(-c2c(O)ccn([C@@H]3O[C@H](COC(C)=O)[C@@H](OC(C)=O)[C@H]3OC(C)=O)c2=O)cc(OC)c1OC	> 200	< 4.00	–	–	–	–	–
Cc1ccc(-c2c(O)ccn([C@@H]3O[C@H](CO)[C@@H](O)[C@H]3O)c2=O)cc1	> 400	–	Active	< 4.00	Active	–	–
CC(=O)OC[C@H]1O[C@@H](n2c(=O)cc(O)c3ccccc32)[C@H](OC(C)=O)[C@@H]1OC(C)=O	> 200	< 4.00	–	–	–	–	–
O=c1c(-c2ccccc2)c(O)ccn1[C@@H]1O[C@H](CO)[C@@H](O)[C@H]1O	> 400	–	Active	< 4.00	Active	–	–
CC(=O)OC[C@H]1O[C@@H](n2cc(-c3ccccc3)c(O)cc2=O)[C@H](OC(C)=O)[C@@H]1OC(C)=O	> 200	< 4.00	–	–	–	–	–
O=c1c(-c2ccc(-c3ccccc3)cc2)c(O)ccn1[C@@H]1O[C@H](CO)[C@@H](O)[C@H]1O	> 200	< 4.00	–	–	–	–	–

SMILES	CC50 at 72 h [1] [µM]	pEC50 [2]	Activity [3]	pEC50 [4]	Activity [5]	ratio [6]	Activity [7] [%]
CC(=O)OC[C@H]1O[C@@H](n2ccc(O)c(-c3ccc(-c4ccccc4)cc3)c2=O)[C@H](OC(C)=O)[C@@H]1OC(C)=O	> 200	4.48	–	–	–	67	–
COc1ccc(-c2c(O)ccn([C@@H]3O[C@H](CO)[C@@H](O)[C@H]3O)c2=O)cc1OC	> 400	–	Active	< 4.00	Active	–	–
COc1ccc(-c2cn([C@@H]3O[C@H](CO)[C@@H](O)[C@H]3O)c(=O)cc2O)cc1	> 200	< 4.00	–	–	–	–	–
CC(=O)OC[C@H]1O[C@@H](n2ccc(O)c(-c3ccc(C)cc3)c2=O)[C@H](OC(C)=O)[C@@H]1OC(C)=O	> 400	–	Active	< 4.00	Active	–	–
O=c1c(-c2ccc(C3CCCCC3)cc2)c(O)ccn1[C@@H]1O[C@H](CO)[C@@H](O)[C@H]1O	> 200	< 4.00	–	–	–	–	–
CC(=O)OC[C@H]1O[C@@H](n2ccc(O)c(-c3ccc4c(c3)OCO4)c2=O)[C@H](OC(C)=O)[C@@H]1OC(C)=O	> 400	–	Active	< 4.00	Active	–	–
CCOc1ccc(-c2c(O)ccn([C@@H]3O[C@H](CO)[C@@H](O)[C@H]3O)c2=O)cc1	> 200	< 4.00	–	–	–	–	–
COc1ccc(-c2c(O)ccn([C@@H]3O[C@H](CO)[C@@H](O)[C@H]3O)c2=O)cc1	> 400	< 4.00	Active	4.70	Active	3.8	82
COc1cc(-c2c(O)ccn([C@@H]3O[C@H](CO)[C@@H](O)[C@H]3O)c2=O)cc(OC)c1OC	> 200	< 4.00	–	–	–	–	–
O=c1cc(O)c(-c2ccccc2)cn1[C@@H]1O[C@H](CO)[C@@H](O)[C@H]1O	> 200	< 4.00	–	–	–	–	–
CC(=O)OC[C@H]1O[C@@H](n2ccc(O)c(-c3ccc(C(C)(C)C)cc3)c2=O)[C@H](OC(C)=O)[C@@H]1OC(C)=O	> 200	< 4.00	–	–	–	–	–
CCOc1ccc(-c2c(O)ccn([C@@H]3O[C@H](COC(C)=O)[C@@H](OC(C)=O)[C@H]3OC(C)=O)c2=O)cc1	> 200	< 4.00	–	–	–	–	–
Nc1nc2c(ncn2COCCO)c(=O)[nH]1 [ACYCLOVIR]	> 200	4.66	–	6.12	–	–	–
O=c1c(CCc2ccccc2)c(O)ccn1[C@@H]1O[C@H](CO)[C@@H](O)[C@H]1O	> 400	–	Active	< 4.00	Active	–	–
O=c1c(-c2ccc3c(c2)OCO3)c(O)ccn1[C@@H]1O[C@H](CO)[C@@H](O)[C@H]1O	> 400	–	Active	< 4.00	Active	–	–
CC(=O)OC[C@H]1O[C@@H](n2ccc(O)c(-c3ccc(OC(F)(F)F)cc3)c2=O)[C@H](OC(C)=O)[C@@H]1OC(C)=O	> 200	< 4.00	–	–	–	–	–
COc1ccc(-c2c(O)ccn([C@@H]3O[C@H](COC(C)=O)[C@@H](OC(C)=O)[C@H]3OC(C)=O)c2=O)cc1	> 200	< 4.00	Active	4.98	Active	7.2	85
